Earlier results, collected in patent US20230346696A1, “SPRAY DRIED LOW HYGROSCOPICITY ACTIVE POWDER COMPOSITIONS” (PHILIP MORRIS PRODUCTS S.A., priority 2020, published 2023).

Details: 25° C.

solubility: 69 g/100 ml water
Compound: OC[C@H]1O[C@H](O[C@H]2O[C@H](CO)[C@@H](O)[C@H](O)[C@H]2O)[C@H](O)[C@@H](O)[C@@H]1O [trehalose]
